Measurements reported in US4613608A (priority 1982, dated 1986).
Converted amounts (≈) assume the structure as drawn.

Experiments:
large coronary artery = assay: tissue or blood; type: cell-based, dogs; conditions: for EC50: Canis lupus familiaris, read-out: ED50 Large (L); for S/L: dog, coronary artery strips
small coronary artery = assay: tissue or blood; type: cell-based, dogs; conditions: Canis lupus familiaris, read-out: ED50 Small (S)

Row | Compound | EC50 (large coronary artery) | S/L (large coronary artery) | EC50 (small coronary artery)
1 | O=[N+]([O-])OCc1cccnc1 [Compound A, 3-Nitroxymethylpyridine, reference compound] | 0.08 µg/mL (≈ 0.519 µM) | 23.8 | 1.9 µg/mL (≈ 12.3 µM)
2 | O=[N+]([O-])OCCCc1ccncc1 [Compound C, 4-(3-Nitroxypropyl)pyridine] | 0.0125 µg/mL (≈ 0.0686 µM) | > 800 | > 10 µg/mL
3 | O=[N+]([O-])OCc1cccc(Cl)n1 [Compound D, 2-Nitroxymethyl-6-chloropyridine] | 0.0067 µg/mL (≈ 0.0355 µM) | 925 | 6.2 µg/mL (≈ 32.9 µM)
